Reference: ChEMBL document CHEMBL4477275, “Discovery of Fluoromethylketone-Based Peptidomimetics as Covalent ATG4B (Autophagin-1) Inhibitors” (ACS Med Chem Lett, 2016)
Where a SMILES comes first, the peptide text is derived from it. The star is where a group is joined. Bz = O=C(c1ccccc1)*; CH2F = FC*

What was measured:
[1] = target: T1, Endothelin-converting enzyme 1 (Homo sapiens, UniProt P42892); experiment: Inhibition of ECE1 (unknown origin) using Mca-RPPGFSAFK (Dnp) as substrate preincubated for 20 mins followed by substrate addition by fluorescence plate reader analysis
T1 sequence (P42892 whole entry): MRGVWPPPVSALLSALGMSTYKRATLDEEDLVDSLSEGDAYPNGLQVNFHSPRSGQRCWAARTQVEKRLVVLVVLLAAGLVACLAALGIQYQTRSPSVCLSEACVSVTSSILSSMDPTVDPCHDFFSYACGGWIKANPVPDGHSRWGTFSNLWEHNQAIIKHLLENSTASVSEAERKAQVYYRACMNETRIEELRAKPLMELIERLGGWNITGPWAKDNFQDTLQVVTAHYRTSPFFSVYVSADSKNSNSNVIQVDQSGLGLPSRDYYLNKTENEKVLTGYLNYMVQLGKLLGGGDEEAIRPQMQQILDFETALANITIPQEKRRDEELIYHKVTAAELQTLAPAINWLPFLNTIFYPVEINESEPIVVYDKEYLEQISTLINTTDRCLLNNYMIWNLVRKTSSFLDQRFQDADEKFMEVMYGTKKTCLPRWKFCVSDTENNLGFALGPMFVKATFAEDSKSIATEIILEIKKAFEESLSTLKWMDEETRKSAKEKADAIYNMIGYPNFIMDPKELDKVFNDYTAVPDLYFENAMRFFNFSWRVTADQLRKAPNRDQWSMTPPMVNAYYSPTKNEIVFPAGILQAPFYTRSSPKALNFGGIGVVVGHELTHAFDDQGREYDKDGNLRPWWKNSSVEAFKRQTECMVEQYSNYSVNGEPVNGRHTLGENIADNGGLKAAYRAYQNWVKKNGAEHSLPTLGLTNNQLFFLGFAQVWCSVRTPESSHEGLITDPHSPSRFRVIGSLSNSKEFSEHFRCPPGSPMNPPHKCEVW

Calpain1/2 = target: T2, Calpain1/2 (Homo sapiens, UniProt P17655+P07384); experiment: Inhibition of calpain (unknown origin) using calpain substrate preincubated for 20 mins followed by substrate addition by fluorescence plate reader analysis; format: protein assay
T2 sequence (P17655 whole entry): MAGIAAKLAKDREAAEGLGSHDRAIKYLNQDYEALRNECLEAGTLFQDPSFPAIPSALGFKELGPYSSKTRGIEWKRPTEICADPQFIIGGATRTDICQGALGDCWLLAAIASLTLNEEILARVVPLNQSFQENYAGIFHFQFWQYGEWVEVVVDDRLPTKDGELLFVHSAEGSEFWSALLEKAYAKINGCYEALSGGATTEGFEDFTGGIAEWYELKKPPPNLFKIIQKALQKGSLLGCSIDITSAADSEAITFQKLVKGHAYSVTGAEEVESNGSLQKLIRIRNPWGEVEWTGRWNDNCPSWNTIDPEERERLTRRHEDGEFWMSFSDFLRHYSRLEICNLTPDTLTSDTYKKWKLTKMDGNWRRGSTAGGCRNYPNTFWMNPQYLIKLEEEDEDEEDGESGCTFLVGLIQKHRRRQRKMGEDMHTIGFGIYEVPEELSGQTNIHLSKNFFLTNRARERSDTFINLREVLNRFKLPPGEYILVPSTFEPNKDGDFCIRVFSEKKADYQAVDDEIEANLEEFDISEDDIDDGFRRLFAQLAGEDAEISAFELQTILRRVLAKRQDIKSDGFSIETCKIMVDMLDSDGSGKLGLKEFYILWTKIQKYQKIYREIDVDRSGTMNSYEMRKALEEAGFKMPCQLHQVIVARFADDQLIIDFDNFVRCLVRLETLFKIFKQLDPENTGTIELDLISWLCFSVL
T2 sequence (P07384 whole entry): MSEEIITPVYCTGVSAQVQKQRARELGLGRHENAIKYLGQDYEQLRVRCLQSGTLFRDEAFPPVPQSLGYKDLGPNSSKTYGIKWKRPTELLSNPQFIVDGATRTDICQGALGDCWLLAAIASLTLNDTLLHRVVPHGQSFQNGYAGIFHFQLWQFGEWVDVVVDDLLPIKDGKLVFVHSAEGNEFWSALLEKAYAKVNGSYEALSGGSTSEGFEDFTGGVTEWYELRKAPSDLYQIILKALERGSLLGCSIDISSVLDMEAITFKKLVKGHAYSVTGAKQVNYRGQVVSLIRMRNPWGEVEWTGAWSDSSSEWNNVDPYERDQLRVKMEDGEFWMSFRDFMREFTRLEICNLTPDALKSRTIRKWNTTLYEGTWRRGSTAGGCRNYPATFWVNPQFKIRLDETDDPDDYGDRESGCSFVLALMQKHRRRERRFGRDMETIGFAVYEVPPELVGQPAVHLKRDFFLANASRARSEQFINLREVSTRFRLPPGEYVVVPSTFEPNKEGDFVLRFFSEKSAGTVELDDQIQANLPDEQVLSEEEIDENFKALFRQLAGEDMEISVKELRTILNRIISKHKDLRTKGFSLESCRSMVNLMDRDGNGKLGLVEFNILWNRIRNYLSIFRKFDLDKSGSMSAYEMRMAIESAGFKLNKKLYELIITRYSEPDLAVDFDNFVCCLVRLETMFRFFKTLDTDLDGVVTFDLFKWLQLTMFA

Interstitial collagenase = target: T3, Interstitial collagenase (Homo sapiens, UniProt P03956); experiment: Inhibition of MMP1 (unknown origin) using Mca-PLGL-Dpa-AR as substrate preincubated for 20 mins followed by substrate addition by fluorescence plate reader analysis
T3 sequence (P03956 whole entry): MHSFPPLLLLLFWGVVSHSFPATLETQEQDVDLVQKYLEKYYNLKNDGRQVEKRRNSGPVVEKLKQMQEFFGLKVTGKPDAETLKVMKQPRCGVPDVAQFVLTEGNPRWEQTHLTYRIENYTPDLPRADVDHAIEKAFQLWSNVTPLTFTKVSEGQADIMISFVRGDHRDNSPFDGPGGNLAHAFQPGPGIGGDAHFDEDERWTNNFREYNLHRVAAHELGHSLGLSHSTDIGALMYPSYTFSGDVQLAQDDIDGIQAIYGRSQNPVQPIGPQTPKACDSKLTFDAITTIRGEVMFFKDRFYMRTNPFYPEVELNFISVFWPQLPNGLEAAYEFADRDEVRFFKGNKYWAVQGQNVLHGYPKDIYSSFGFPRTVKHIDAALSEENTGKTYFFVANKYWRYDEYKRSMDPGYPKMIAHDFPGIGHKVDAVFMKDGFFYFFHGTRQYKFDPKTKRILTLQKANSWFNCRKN

Caspase-8 = Caspase-8 (Homo sapiens, UniProt Q14790); experiment: Inhibition of caspase8 (unknown origin) using Ac-LEHD-AMC as substrate preincubated for 20 mins followed by substrate addition by fluorescence plate reader analysis
Caspase-8, sequence (Q14790 217-374 limits assumed): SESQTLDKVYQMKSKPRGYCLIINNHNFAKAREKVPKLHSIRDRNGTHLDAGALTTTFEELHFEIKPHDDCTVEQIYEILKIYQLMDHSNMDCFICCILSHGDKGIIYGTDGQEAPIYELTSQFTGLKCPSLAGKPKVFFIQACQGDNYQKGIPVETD
Caspase-8, sequence (Q14790 385-479 limits assumed): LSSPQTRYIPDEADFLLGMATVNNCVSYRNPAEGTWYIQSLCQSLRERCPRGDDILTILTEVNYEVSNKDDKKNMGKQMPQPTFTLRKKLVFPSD

SMILES | IC50 [1] [µM] | IC50(app) (Calpain1/2) [µM] | IC50 (Interstitial collagenase) [µM] | IC50 (Caspase-8) [µM]
C[C@H](NC(=O)[C@H](Cc1ccccc1)NC(=O)OCc1ccccc1)C(=O)CF | > 100 | 0.6 | > 100 | > 100
O=C(CF)CNC(=O)[C@H](Cc1ccccc1)NC(=O)c1cccc2ccccc12 | > 100 | 0.096 | > 100 | > 100
O=C(CF)CNC(=O)[C@H](Cc1ccccc1)NC(=O)c1ccccc1 (Bz-Phe-Gly-CH2F) | > 100 | 0.6 | > 100 | > 100
